Assay results from patent publication US9447122B2, “Arginase inhibitors and methods of use thereof” (AstraZeneca AB, priority 2010, dated 2016).
pKi: −log10 of the molar value.

Each molecule was assayed against T1, human arginase I (Homo sapiens, UniProt P05089) (assay: Arginase inhibition, QuantiChrom colorimetric urea assay, IC50 converted to Ki). Conditions: Table 3; pH 7.5; read-out: human Arginase I pH 7.5, Ki assigned value.
T1 sequence (P05089 1-322): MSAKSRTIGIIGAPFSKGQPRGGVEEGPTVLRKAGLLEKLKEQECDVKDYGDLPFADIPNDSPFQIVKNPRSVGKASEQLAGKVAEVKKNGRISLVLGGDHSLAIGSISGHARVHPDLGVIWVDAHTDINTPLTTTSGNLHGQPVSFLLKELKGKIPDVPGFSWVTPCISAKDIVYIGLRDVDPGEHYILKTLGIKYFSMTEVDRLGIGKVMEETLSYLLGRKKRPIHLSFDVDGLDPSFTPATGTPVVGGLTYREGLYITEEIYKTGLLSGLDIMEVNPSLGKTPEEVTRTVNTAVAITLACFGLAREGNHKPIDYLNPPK
Assay type: biochemical
Method: (§1) For some compounds, their inhibitory potency at pH 7.5 was compared to the inhibitory potency of ABH at pH 7.5.
(§2) Quantitative determination of arginase activity was performed in a 96-well format by a colorimetric method using the QuantiChrom™ Arginase Assay Kit available from BioAssay Systems (Hayward, Calif., Catalog No. DARG-200) according to the manufacturer's protocol. Modifications were made to reagent quantities to suit the assaying of a highly purified sample.
(§3) The intensity of the color was directly proportional to the arginase activity in the sample.
(§4) The rate of urea production was measured in the presence of twelve different concentrations of each potential inhibitor compound. In a typical assay, seven different compounds were tested relative to a control inhibitor (e.g. ABH) against one enzyme (either human ArgI or human ArgII) at a particular pH (either 9.5 or 7.5). The pH of the solution was controlled using an appropriate pH buffering compound at 60 mM concentrations; for example, 60 mM glycine (pH 9.5) or 60 mM HEPES (pH 7.5). The half maximal inhibitory concentration (IC50) was determined by constructing a dose-response curve.

pKi, 7.30 to 7.96:
NC(CCCCB(O)O)(CCCN1CCCC1c1ccc(-c2ccccc2)cc1)C(=O)O (centres unmarked) [Example 54]
NC(CCCCB(O)O)(CCCN1CCCC1)C(=O)O (centres unmarked) [Example 56]
NC(CCCCB(O)O)(CCCN1CCSCC1)C(=O)O (centres unmarked) [Example 65]
CN(CCCC(N)(CCCCB(O)O)C(=O)O)CCc1ccccc1 (centres unmarked) [Example 68]
CN(CCCC(N)(CCCCB(O)O)C(=O)O)C1CCCCC1 (centres unmarked) [Example 78]

pKi, > 8.00:
NC(CCCCB(O)O)(CCCN1CCC1)C(=O)O (centres unmarked) [Example 57]
NC(CCCCB(O)O)(CCCN1CC(c2ccccc2)C1)C(=O)O (centres unmarked) [Example 58]
NC(CCCCB(O)O)(CCCN1CC(NC(=O)Nc2ccc(Cl)c(Cl)c2)C1)C(=O)O (centres unmarked) [Example 60]
NC(CCCCB(O)O)(CCCN1CCOCC1)C(=O)O (centres unmarked) [Example 64]
NC(CCCCB(O)O)(CCCNCCc1ccccc1)C(=O)O (centres unmarked) [Example 67]
NC(CCCCB(O)O)(CCCNC1CCCCC1)C(=O)O (centres unmarked) [Example 77]

Same assay, conditions: Table 3; pH 9.5; read-out: human Arginase I pH 9.5, Ki assigned value

pKi, 7.00 to 7.29:
NC(CCCCB(O)O)(CCCN1CCSCC1)C(=O)O (centres unmarked) [Example 65]

pKi, > 8.00:
NC(CCCCB(O)O)(CCCN1CC(NC(=O)Nc2ccc(Cl)c(Cl)c2)C1)C(=O)O (centres unmarked) [Example 60]
NC(CCCCB(O)O)(CCCNCCc1ccccc1)C(=O)O (centres unmarked) [Example 67]
NC(CCCCB(O)O)(CCCNC1CCCCC1)C(=O)O (centres unmarked) [Example 77]

pKi, 7.30 to 7.96:
NC(CCCCB(O)O)(CCCN1CCCC1c1ccc(-c2ccccc2)cc1)C(=O)O (centres unmarked) [Example 54]
NC(CCCCB(O)O)(CCCN1CCCC1)C(=O)O (centres unmarked) [Example 56]
NC(CCCCB(O)O)(CCCN1CCC1)C(=O)O (centres unmarked) [Example 57]
NC(CCCCB(O)O)(CCCN1CC(c2ccccc2)C1)C(=O)O (centres unmarked) [Example 58]
NC(CCCCB(O)O)(CCCN1CCOCC1)C(=O)O (centres unmarked) [Example 64]
CN(CCCC(N)(CCCCB(O)O)C(=O)O)CCc1ccccc1 (centres unmarked) [Example 68]
CN(CCCC(N)(CCCCB(O)O)C(=O)O)C1CCCCC1 (centres unmarked) [Example 78]

What follows are molecules tested against T2, human arginase II (Homo sapiens, UniProt P78540) in the same assay as above. Conditions: Table 3; pH 7.5; read-out: human Arginase II pH 7.5, Ki assigned value.
T2 sequence (P78540 23-354): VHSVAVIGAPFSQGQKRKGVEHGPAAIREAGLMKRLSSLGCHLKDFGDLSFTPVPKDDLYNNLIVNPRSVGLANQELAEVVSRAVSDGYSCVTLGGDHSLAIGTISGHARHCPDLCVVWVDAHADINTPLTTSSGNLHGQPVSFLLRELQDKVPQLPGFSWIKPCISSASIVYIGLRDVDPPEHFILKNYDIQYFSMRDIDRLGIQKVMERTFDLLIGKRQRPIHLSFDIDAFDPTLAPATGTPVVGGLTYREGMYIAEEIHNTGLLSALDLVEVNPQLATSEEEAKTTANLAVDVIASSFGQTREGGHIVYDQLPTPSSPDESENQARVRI
Assay type: biochemical
Method: as §1, §2, §3, §4

pKi, > 8.00:
NC(CCCCB(O)O)(CCCN1CC(NC(=O)Nc2ccc(Cl)c(Cl)c2)C1)C(=O)O (centres unmarked) [Example 60]
NC(CCCCB(O)O)(CCCNCCc1ccccc1)C(=O)O (centres unmarked) [Example 67]
NC(CCCCB(O)O)(CCCNC1CCCCC1)C(=O)O (centres unmarked) [Example 77]

pKi, 7.00 to 7.29:
NC(CCCCB(O)O)(CCCN1CCCC1)C(=O)O (centres unmarked) [Example 56]
CN(CCCC(N)(CCCCB(O)O)C(=O)O)C1CCCCC1 (centres unmarked) [Example 78]

pKi, 7.30 to 7.96:
NC(CCCCB(O)O)(CCCN1CCCC1c1ccc(-c2ccccc2)cc1)C(=O)O (centres unmarked) [Example 54]
NC(CCCCB(O)O)(CCCN1CCC1)C(=O)O (centres unmarked) [Example 57]
NC(CCCCB(O)O)(CCCN1CC(c2ccccc2)C1)C(=O)O (centres unmarked) [Example 58]
NC(CCCCB(O)O)(CCCN1CCOCC1)C(=O)O (centres unmarked) [Example 64]
NC(CCCCB(O)O)(CCCN1CCSCC1)C(=O)O (centres unmarked) [Example 65]
CN(CCCC(N)(CCCCB(O)O)C(=O)O)CCc1ccccc1 (centres unmarked) [Example 68]

Same assay, conditions: Table 3; pH 9.5; read-out: human Arginase II pH 9.5, Ki assigned value

pKi, 7.00 to 7.29:
NC(CCCCB(O)O)(CCCN1CCCC1c1ccc(-c2ccccc2)cc1)C(=O)O (centres unmarked) [Example 54]
NC(CCCCB(O)O)(CCCN1CCC1)C(=O)O (centres unmarked) [Example 57]
NC(CCCCB(O)O)(CCCN1CCOCC1)C(=O)O (centres unmarked) [Example 64]

pKi, > 8.00:
NC(CCCCB(O)O)(CCCNCCc1ccccc1)C(=O)O (centres unmarked) [Example 67]

pKi, 7.30 to 7.96:
NC(CCCCB(O)O)(CCCN1CC(c2ccccc2)C1)C(=O)O (centres unmarked) [Example 58]
NC(CCCCB(O)O)(CCCN1CC(NC(=O)Nc2ccc(Cl)c(Cl)c2)C1)C(=O)O (centres unmarked) [Example 60]
CN(CCCC(N)(CCCCB(O)O)C(=O)O)CCc1ccccc1 (centres unmarked) [Example 68]
NC(CCCCB(O)O)(CCCNC1CCCCC1)C(=O)O (centres unmarked) [Example 77]
CN(CCCC(N)(CCCCB(O)O)C(=O)O)C1CCCCC1 (centres unmarked) [Example 78]

pKi, < 6.40:
NC(CCCCB(O)O)(CCCN1CCSCC1)C(=O)O (centres unmarked) [Example 65]

pKi, 6.60 to 7.00:
NC(CCCCB(O)O)(CCCN1CCCC1)C(=O)O (centres unmarked) [Example 56]
